For orientation: inhibition means the share of the control response that was lost under treatment. A lower inhibition goes with a weak effect. As a reminder, the IC50 is the concentration that inhibits the measured activity by half.

The subject of one experiment is TNF-α production. Briefly: Inhibitory activity against cytokine (TNF-α) production in LPS-stimulated RAW264.7 cells. In kind it is cell-based, mouse. Conditions: Mus musculus, 1 μM test compound, LPS 10 ng/mL. The procedure: The mouse monocyte/macrophage cell line, RAW264.7 (ATCC TIB71) was purchased from Dainippon Pharmaceutical Co., Ltd. The RAW264.7 cells were cultured in a CO2 incubator (37° C., 95% of humidity, 5% of CO2) by using the Dulbecco's modified Eagle's medium (DMEM medium; GIBCO, Cat. No. 11995-040) containing bovine fetal serum (the final concentration: 10% (v/v), MOREGATE, lot No. 474030), penicillin G (the final concentration: 50 units/mL […], GIBCO) and streptomycin (the final concentration: 20 μg/mL, GIBCO).
Sixty (60) μL of the RAW264.7 cell suspension (83,000 cells/mL) were plated into each well of a 96-well microplate (5,000 cells/well). After the cells were cultured for 4 hr in a CO2 incubator, 40 μL of DMEM medium containing 25 ng/mL of LPS (Sigma-Aldrich Japan K. K.) were added into each well (final concentration of LPS: 10 ng/mL). The test compound dissolved in DMSO at a concentration of 1 mM was diluted with DMEM medium by 20 times. Then 2 μL/well of the diluted solution were added to wells containing the plated cells (final concentration of the test compound: 1 μM). As the control, 2 μL/well of DMSO diluted with DMEM medium by 20 times were added to wells containing the plated cells either with LPS (final concentration: 10 ng/mL) or without LPS. After these cells were cultured in a CO2 incubator for 15 hr, the supernatant of the medium was recovered. The amount of mTNF-α in the medium supernatant was determined with a mouse TNF-α ELISA kit Quantikine M (R&D System), according to the experiment protocol attached with the kit.
The inhibitory activity of the test compound against TNF-α production was calculated according to the following equation.
A: The amount of TNF-α in the presence of test compound
B: The amount of TNF-α in the control without LPS
C: The amount of TNF-α in the control with 10 ng/mL of LPS
Inhibitory Activity of the Test Compound against TNF-α Production (%)=100−(A−B)/(C−B)×100

Experiment [1] concerns Mouse preadipocyte strain 3T3-L1. In words: Inhibition of differentiation as an indication of acetic acid uptake. Type of experiment: cell-based. Conditions: Mus musculus, 0.1 μM test substance, control (0.01% dimethylsulfoxide) = 100%, read-out: Rate of Uptake (%) of [2-14C] acetic acid. Summed up: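 Confluent 3T3-L1 cells induced to differentiate for 4 days (insulin, IBMX, dexamethasone, 5% FBS) with test compound at 0.1 μM final or 0.01% DMSO, then 2 days in insulin maintenance medium, at 37 °C, 10% CO2. [2-14C]acetic acid uptake over 1 hr counted by scintillation; expressed as % of DMSO control.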

Experiment [2] relates to Rat white adipocytes. Briefly: Stimulation of differentiation of the adipocytes (Oil Red O). In kind it is cell-based. Conditions: Rattus norvegicus, Adipocyte, 120 h, 100 nM test compound; 5 days; Oil Red O ABS550; control = 100%, blank = 0%; Table 7; read-out: Rate of Differentiation (%). As to the method:
Rat white adipocytes contained in the white adipocyte culture kit, which was purchased from HOKUDO, were used. Mediums for proliferation and for differentiation-inducing, which were contained in the white adipocyte culture kit purchased from HOKUDO, were used.
Immediately after arrival of the purchased cells, all medium for transportation was discarded and replaced with 5 ml of proliferation medium (/25 cm^2-flask) and the cells were cultured for one day. Then, a cell suspension was prepared with proliferation medium so as to be 83,000 cells/mL, and the suspension was plated into a type I 96-well collagen-coated microplate (SUMITOMO BAKELITE CO., ltd.) so as to be 5,000 cells/well (60 μL/well). For the blank, the proliferation medium without the cells was plated into the well (blank well) of each plate.
Further, 1) in the group treated with the test compound, 3 μL/well of a solution in which the test compound (100 μM) was dissolved in DMSO solution and diluted with differentiation-inducing medium by 20 times (final concentration of the test compound: 100 nM, final concentration of DMSO: 0.1% (v/v)) were added to the well where the cells were plated. 2) In the control group, 3 μL/well of DMSO solution that was diluted with differentiation-inducing medium by 20 times (final concentration of DMSO: 0.1% (v/v)) were added to the well where the cells were plated. Further, 3) in the blank group, 3 μL/well of DMSO solution that was diluted with differentiation-inducing medium by 20 times (final concentration: 0.1% (v/v)) were added to the blank well.
After culturing for 5 days, all differentiation-inducing medium was discarded and replaced with 60 μL of 10% (v/v) of formaldehyde solution (for fixation) in each well and the cells were kept stationary for 20 min at room temperature. After this the fixative solution was discarded and replaced with 60 μL of 0.2% (v/v) Triton X (Sigma-Aldrich Japan K. K.) solution in each well and kept stationary for 5 min at the room temperature. Then all Triton X solution was discarded and replaced with 60 μL of 60% (v/v) isopropanol solution containing dissolved Oil Red 0 (Sigma-Aldrich Japan K. K.) so as to be 0.3%, which was adipose tissue staining solution, and the well was left stationary for 10 min at room temperature. After the adipose tissue staining solution was discarded, the well was washed twice with 60 μL of 60% (v/v) isopropanol solution. Then, 100 μL of the DMSO were added to each well and stirred for 5 min at room temperature. The absorbance was measured at 550 nm (ABS550) with a multi-plate reader (LabsSystems), and the stained amount by Oil Red 0 was determined. The measured level at ABS550 in the control group was defined as 100%, while the level at ABS550 in the blank group was defined as 0%. The differentiation rate (%) of the adipocytes treated with the test compound was calculated.

Another experiment deals with T1, human PPAR γ 2 (Homo sapiens, UniProt P37231).
T1 construct: expressed in transfected cells; host or cells: human osteosarcoma MG63, transiently co-transfected with pSG5-hPPARg and the reporter pGV-P2-PPRE
T1 sequence (P37231 1-505): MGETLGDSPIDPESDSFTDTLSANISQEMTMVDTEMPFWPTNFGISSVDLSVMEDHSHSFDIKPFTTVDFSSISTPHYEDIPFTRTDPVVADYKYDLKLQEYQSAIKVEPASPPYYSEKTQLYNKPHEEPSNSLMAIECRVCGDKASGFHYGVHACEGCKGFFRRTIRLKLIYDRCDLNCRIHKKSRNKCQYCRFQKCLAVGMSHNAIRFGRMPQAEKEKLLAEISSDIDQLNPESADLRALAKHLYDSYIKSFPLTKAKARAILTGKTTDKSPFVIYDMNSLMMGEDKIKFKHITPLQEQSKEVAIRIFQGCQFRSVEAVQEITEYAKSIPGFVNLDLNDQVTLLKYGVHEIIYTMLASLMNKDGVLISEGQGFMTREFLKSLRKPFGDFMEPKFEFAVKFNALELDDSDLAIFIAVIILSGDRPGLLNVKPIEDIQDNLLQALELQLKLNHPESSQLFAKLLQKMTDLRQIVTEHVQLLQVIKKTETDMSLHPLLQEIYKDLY
Briefly: Inhibitory activity against PPAR γ transcription in the presence of agonist compound A, luciferase reporter. Type of experiment: cell-based. Conditions: in the presence of 10 nM compound A (agonist); MG63 cells transfected with pSG5-hPPARg and pGV-P2-PPRE; 24 hr. An excerpt: The primers of the polymerase chain reaction (hereinafter “PCR”) were designed according to the gene sequence of human PPAR γ 2 (GenBANK accession No. D83233). […] For this, 2 kinds of polynucleotides shown in the sequence numbers 1 and 2 in the sequence table described below (hereinafter “S1” and “AS1”, respectively) were used as PCR primers.
In order to determine transcriptional activity via PPAR γ, 2 kinds of polynucleotides represented in sequence numbers 3 and 4 in the sequence table described below (hereinafter “S2” and “AS2”, respectively) were used for construction of the reporter plasmid having PPAR responsive element. The DNA fragment inserted was designed based on the gene sequence in the promoter region of rat acylCo-A oxidase (J. D. Tugwood, EMBO J., 11 (2), pp433-439 (1992)). For insertion of the DNA fragment into the reporter plasmid pGV-P2 (TOYO INK MFG CO., LTD), a NheI site and an XhoI site were added to the S2 and AS2, respectively.
Using cDNA library (Clontech) derived from human adipose tissue as a template, DNA oligomers S1 and AS1 that were synthesized in the procedure 1 as primers and Ex-Taq™ (TAKARA BIO INC.) as a thermostable DNA polymerase-PCR was carried out. […] Each cycle consisted of incubation at 94° C. for 1 min for denaturation of the template, then at 55° C. for 30 sec for annealing of DNA oligomers the PCR primer, and then at 72° C. for 30 sec for extension of the chain. The obtained DNA fragments with approximately 1500 base pairs were digested at the Bgl II sites and were inserted into BamHI sites of pSG5. Thus a human PPAR γ expression plasmid named pSG5-hPPAR g was obtained.
Vector pGV-P2 digestion products was prepared by digestion using the restriction enzymes, NheI and XhoI, and purified by 1.0% agarose-gel electrophoresis. The DNA oligomers, S2 and AS2 obtained in Procedure 2, were mixed together and were incubated in a hot bath at 94° C. for 1 min. After the annealing was partially broken, they were further incubated at 25° C. for 1 hr. Thus double-stranded DNA with annealing of S2 and AS2 was formed. Then, the terminus of the double-stranded DNA with annealing of S2 and AS2 was phosphorylated with DNA polynucleotide kinase (TOYOBO CO., LTD). After that, it was ligated to the pGV-P2 digestion products which were prepared previously using the NheI site and XhoI site. Thus the reporter plasmid pGV-P2-PPRE was obtained.
Using the plasmid obtained by the procedures 3 and 4, transformation of Escherichia coli HB-101 strain was carried out by conventional methods. HB-101 strain having the plasmid was incubated in L-broth medium (containing 10 g of trypton (Difco), 5 g of yeast extract (Difco), 5 g of sodium chloride in 1 L of aqueous solution) containing 100 μg/ml of ampicillin at 37° C. for 17 hrs. Then, each plasmid was purified by the alkaline-SDS method and employed for the gene transfection to mammalian cells. After mixing the pSG5-hPPARg, PGV-P2-PPRE and LipofectAMINE reagent (GIBCO BRL), the human osteosarcoma MG63 was transiently transfected. Then the cells were recovered. The recovered cells were plated on a 96-well plate so as to be 30,000 cells/well and cultured in a CO2 incubator (NAPCO) at 37° C. for 24 hr under the condition of 5% CO2, 95%-RH.
Ten (10) nM of the following compound A (although compound A is described here as a representative compound, the compound is not limited to compound A, if the compound exerts a PPAR r agonistic activity) and various concentrations of the test compound were added to culturing medium of the cells prepared in the Procedure 5.
Background: Reporter assays use an easily measured gene product as a stand-in for the process of interest.

Experiment [3] has as its system Rat white adipocytes. Briefly: Inhibition of the differentiation of adipocytes (Oil Red O). In kind it is cell-based. The note with it: Rattus norvegicus, Adipocyte, 120 h, 100 nM test compound; 5 days; Oil Red O ABS550; control = 100%, blank = 0%; Table 3; read-out: Rate of Differentiation (%). Summed up:
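Rat white preadipocytes, 5,000 cells/well, given differentiation medium with compound at 100 nM final (0.1% DMSO) for 5 days at 37 °C. Lipid stained with Oil Red O, eluted in DMSO, read at 550 nm; differentiation % relative to DMSO control (100%) and blank (0%).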

`O=C(Nc1nc(-c2cccc([N+](=O)[O-])c2)cs1)c1cc([N+](=O)[O-])ccc1Cl` [Example 61, N-[4-(3-Nitrophenyl)thiazol-2-yl]-(2-chloro-5-nitrophenyl)carboxamide] came in with an inhibition at 1 µM with TNF-α production (15 hr) of 22.6%. Moreover, the activity at 0.1 µM in experiment [1] is 74.8%.
Regarding `O=C(Nc1ccc(C(=O)N2CCCC2)cc1)c1cc([N+](=O)[O-])ccc1Cl` [Example 160, N-[4-(Pyrrolidinylcarbonyl)phenyl]-(2-chloro-5-nitrophenyl)carboxamide], the activity at 0.1 µM in the experiment with Rat white adipocytes [2] came to 128%. For the same compound, at human PPAR γ 2, the IC50 was found to be 110 nM.
Regarding `CN1CCN(C(=O)c2ccc(NC(=O)c3cc([N+](=O)[O-])ccc3Cl)cc2)CC1` [Example 164, N-[4-(4-Methylpiperazin-1-ylcarbonyl)phenyl]-(2-chloro-5-nitrophenyl)carboxamide], the activity at 0.1 µM in the experiment with Rat white adipocytes [2] is 125%. The 50% inhibitory concentration (IC50) at human PPAR γ 2 worked out at 0.6 nM.
As for `O=C(Nc1ccc(C(=O)N2CCN(c3ccccc3)CC2)cc1)c1cc([N+](=O)[O-])ccc1Cl` [Example 165, N-[4-(4-Phenylpiperazin-1-ylcarbonyl)phenyl]-(2-chloro-5-nitrophenyl)carboxamide], the activity at 0.1 µM in the experiment with Rat white adipocytes [3] was determined as 85.8%. Further, in the experiment with TNF-α production (RAW264.7, 15 h), the inhibition at 1 µM came to 15.7%.
The corresponding values for `CCCCCCN(CCCC)c1ccc(-c2ccc(NC(=O)c3cc([N+](=O)[O-])ccc3Cl)cc2)cc1` [Example 199, N-[4-[4-(N-Butyl-N-hexylamino)phenyl]phenyl]-(2-chloro-5-nitrophenyl)carboxamide] are 35.8% and 20.8%.
The corresponding values for `CCCCCN(CCC)c1ccc(-c2ccc(NC(=O)c3cc([N+](=O)[O-])ccc3Cl)cc2)cc1` [Example 211, N-[4-[4-(N-Pentyl-N-propylamino)phenyl]phenyl]-(2-chloro-5-nitrophenyl)carboxamide] are 37.3% and 27.6%.
For `Nc1ccc(-c2csc(NC(=O)c3cc([N+](=O)[O-])ccc3Cl)n2)cc1` [Example 241, N-[4-(4-Aminophenyl)thiazol-2-yl]-(2-chloro-5 nitrophenyl)carboxamide], the activity at 0.1 µM with Rat white adipocytes [3] was 57.9%. Moreover, the inhibition at 1 µM with TNF-α production (RAW264.7, 15 h) was 28%.

The record behind these values is patent US20030134859A1 (SANKYO COMPANY, LIMITED, priority 2000, published 2003).
